# How the values were obtained:
# Ramularia collo-cygni = assay: Activity against Ramularia collo-cygni in plates; type: cell-based
# Experimental: (§1) Colby's method is used to determine if synergy exists for a combination of active ingredients. According to Colby, the expected action (E) of active ingredients A+B is: [formula] • where E=expected efficacy, A and B=the efficacy of two active ingredients A and B at a given dose. When the percentage of control observed (O) for the combination is greater than the expected (E) percentage, there is a synergistic effect. The synergism ratio (R) is calculated as the ratio between the expected values and observed values. […] The compositions were diluted with water. Each formulation with active ingredient is diluted with water and biological efficacy trials on target fungi are conducted.
# [1] = test system: Colletotrichum gloeosporioides; assay: Activity against Colletotrichum gloeosporioides in plates; type: cell-based
# Experimental: as §1
# Botrytis cinerea = assay: Activity against Botrytis cinerea in plates; type: cell-based
# Experimental: as §1
# Tetranychus urticae = assay: Activity of Sulphur + Fluazinam against Tetranychus urticae in plates; type: in vivo
# Experimental: (§2) Colby's method is used to determine if synergy exists for a combination of active ingredients. According to Colby, the expected action (E) of active ingredients A+B is:
# (§3) [formula] • where E=expected efficacy, A and B=the efficacy of two active ingredients A and B at a given dose.
# (§4) When the percentage of control observed (O) for the combination is greater than the expected (E) percentage, there is a synergistic effect. The synergism ratio (R) is calculated as the ratio between the expected values and observed values.
# (§5) Furthermore, the miticidal and insecticidal efficacy of the compositions are also evaluated with reference to a scale of 0% to 100% in comparison with untreated control plots. 0 means no control and 100 means complete control of the target pest.
# (§6) The experiments were conducted by applying commercially available formulations of Sulphur and other mixture partners, alone or with their tank-mixed compositions. The compositions were diluted with water.
# (§7) Each formulation with active ingredient is diluted with water and biological efficacy trials on target pest are conducted.
# Alternaria solani = assay: Activity against Alternaria solani in plates; type: cell-based
# Experimental: as §1
# [2] = test system: Trialeurodes vaporariorum; assay: Activity of Sulphur + Fluazinam against Trialeurodes vaporariorum plates; type: in vivo
# Experimental: as §2, §3, §4, §5, §6, §7
# Zymoseptoria tritici = assay: Wheat yield increase when applied for Zymoseptoria tritici control; type: in vivo
# Experimental: as §6
# (§8) Each formulation with active ingredient is diluted with water and biological efficacy trials on target fungi are conducted.
# Venturia inaequalis [3] = assay: Sulphur + Difenoconazole on apple fruits incidence for Venturia inaequalis control; type: in vivo; conditions: 4 days after last application
# Experimental: as §1
# Venturia inaequalis [4] = assay: Apple fruits classes of damage for Venturia inaequalis control; type: in vivo; conditions: 14 days after last application; for Class 1 (%): class 1 = no damage; for Class 2 (%): class 2 = 2-3 spots per fruit; for Class 3 (%): class 3 = more than 3 spots per fruit
# Experimental: The fungicidal compounds A (sulphur) and B (mix partner) are formulated as equivalent compositions to eliminate the effects of differing formulation inerts on biological activity. Efficacy of the fungicidal compositions is evaluated with reference to a scale of 0% to 100% in comparison with untreated control plots. 0 means no control and 100 means complete control of the target disease.
# as §6, §8
compound,measurement,setting,value
Fluazinam,Observed % control (O),Ramularia collo-cygni; rate 150 g/ha,36.3%
same,Observed % control (O),[1]; rate 150 g/ha,60.8%
same,Observed % control (O),Botrytis cinerea; rate 150 g/ha,64.4%
same,Observed % control (O),Tetranychus urticae; 200 g ai/ha,27.5%
same,Observed % control (O),Tetranychus urticae; 250 g ai/ha,32.5%
same,Observed % control (O),Tetranychus urticae; 300 g ai/ha,32.5%
same,Observed % control (O),Tetranychus urticae; 350 g ai/ha,37.5%
same,Observed % control (O),Alternaria solani; rate 150 g/ha,57.5%
same,Observed % control (O),[2]; 200 g ai/ha,21.7%
same,Observed % control (O),[2]; 250 g ai/ha,23.6%
same,Observed % control (O),[2]; 300 g ai/ha,24.1%
same,Observed % control (O),[2]; 350 g ai/ha,33.6%
CC1COC(Cn2cncn2)(c2ccc(Oc3ccc(Cl)cc3)cc2Cl)O1 (centres unmarked) [Difenoconazole],Yield increase versus the untreated (%),"Zymoseptoria tritici; untreated = 100, rate 75 g/ha",102.26%
same,Yield increase versus the untreated (%),"Zymoseptoria tritici; untreated = 100, rate 125 g/ha",109.14%
same,Observed % control (O),Ramularia collo-cygni; rate 25 g/ha,73.9%
same,Observed % control (O),[1]; rate 25 g/ha,58.4%
same,Observed % control (O),Venturia inaequalis [3]; rate 37.5 g/ha,67.90%
same,Observed % control (O),Venturia inaequalis [3]; rate 50 g/ha,69.40%
same,Class 1 (%),Venturia inaequalis [4]; rate 37.5 g/ha,92.5%
same,Class 1 (%),Venturia inaequalis [4]; rate 50 g/ha,93.5%
same,Class 2 (%),Venturia inaequalis [4]; rate 37.5 g/ha,5.2%
same,Class 2 (%),Venturia inaequalis [4]; rate 50 g/ha,3.3%
same,Class 3 (%),Venturia inaequalis [4]; rate 37.5 g/ha,2.3%
same,Class 3 (%),Venturia inaequalis [4]; rate 50 g/ha,3.3%
same,Observed % control (O),Botrytis cinerea; rate 25 g/ha,62.5%
same,Observed % control (O),Alternaria solani; rate 25 g/ha,60.6%

# From patent publication US20260256144A1, “FUNGICIDAL MIXTURE COMPOSITION COMPRISING SULPHUR” (ADAMA MAKHTESHIM LTD., priority 2022, published 2026)
